Source: patent US9493468B2, “Antifungal 5,6-dihydro-4H-pyrrolo[1,2-a][1,4]benzo-diazepines and 6H-pyrrolo[1,2-a][1,4]benzodiazepines substituted with heterocyclic derivatives” (Janssen Pharmaceutica NV, priority 2011, dated 2016)

How the values were obtained:
Assay type in all cases: cell-based
Candida parapsilosis = experiment: Antifungal activity in vitro, resazurin growth inhibition: Candida parapsilosis (B66126)
Experimental: (§1) The standard susceptibility screen is performed in 96-well plates (U-bottom, Greiner Bio-One). Serial dilutions (2-fold or 4-fold) of 20 mM compound stock solutions are made in 100% DMSO, followed by an intermediate dilution step in water. These serial dilutions (10 μl) are then spotted onto test-plates that can be stored in the dark at 4° C. for a maximum period of 2 weeks. An adequate broad dose-range is included with 64 μM as the highest in-test concentration. The culture medium RPMI-1640 is supplemented with L-glutamine, 2% glucose and buffered with 3-(N-morpholino)-propanesulfonic acid (MOPS) at pH 7.0±0.1.
(§2) The different fungal species/isolates (Table 3a) are cryopreserved and 1/1000 diluted in medium just prior to use. A standard inoculum of 200 μl containing 10^3 colony-forming unit (cfu) is then added to each well. A positive control (100% growth=fungal culture without antifungal) and a negative control (0% growth ═RPMI-MOPS medium) are included on each plate. Optimal incubation time and temperature are dependent on the fungal species and vary from 24 h for yeasts (37° C.) to one week or more for dermatophytes (27° C.). Inhibition of fungal growth is measured after adding 10 μl of 0.005% (w/v) resazurin (Sigma Aldrich) to each well, based on the principle that living cells convert the non-fluorescent blue resazurin into the pink and fluorescent resorufin, allowing fluorimetric reading (λex 550 nm and λem 590 nm) after an additional incubation period (‘resa’ time mentioned in Table 3a).

Cryptococcus neoformans = experiment: Antifungal activity in vitro, resazurin growth inhibition: Cryptococcus neoformans (B66663)
Experimental: as §1, §2

Sporothrix schenkii = experiment: Antifungal activity in vitro, resazurin growth inhibition: Sporothrix schenkii (B62482)
Experimental: as §1, §2

Microsporum canis = experiment: Antifungal activity in vitro, resazurin growth inhibition: Microsporum canis (B68128)
Experimental: as §1, §2

[1] = test system: Trichophyton mentagrophytes; experiment: Antifungal activity in vitro, resazurin growth inhibition: Trichophyton mentagrophytes (B70554)
Experimental: as §1, §2

Aspergillus fumigatus = experiment: Antifungal activity in vitro, resazurin growth inhibition: Aspergillus fumigatus (B42928)
Experimental: as §1, §2

Trichophyton rubrum = experiment: Antifungal activity in vitro, resazurin growth inhibition: Trichophyton rubrum (B68183)
Experimental: as §1, §2

Row | SMILES | Inf. D: Candida parapsilosis B66126, pIC50 (Candida parapsilosis) | Inf. F: Cryptococcus neoformans B66663, pIC50 (Cryptococcus neoformans) | Inf. A: Sporothrix schenkii B62482, pIC50 (Sporothrix schenkii) | Inf. B: Microsporum canis B68128, pIC50 (Microsporum canis) | Inf. G: Trichophyton mentagrophytes B70554, pIC50 [1] | Inf. E: Aspergillus fumigatus B42928, pIC50 (Aspergillus fumigatus) | Inf. C: Trichophyton rubrum B68183, pIC50 (Trichophyton rubrum)
1 | Cl.Clc1cccc2c1CNC(c1ccc3scc(Cl)c3c1)c1cccn1-2 (racemic) [Compound 58] | <4.19 | 4.58 | <4.19 | 5.08 | 5.09 | 4.48 | 6.29
2 | Cl.Clc1cccc2c1CNC(c1nc3ccccc3s1)c1cccn1-2 (racemic) [Compound 59] | <4.19 | <4.19 | 4.85 | 6.22 | 6.00 | <4.19 | 6.47
3 | CCn1cc(C2=NCc3c(Cl)cccc3-n3cccc32)cn1 [Compound 60] | <4.19 | <4.19 | <4.19 | 5.18 | 4.47 | 4.30 | 5.70
4 | CCn1cc(C2=NCc3c(Cl)ccc(Cl)c3-n3cccc32)cn1 [Compound 61] | <4.19 | 4.44 | <4.19 | 4.66 | 4.39 | <4.19 | 4.52
5 | CCn1cc(C2=NCc3cc(Cl)cc(Cl)c3-n3cccc32)cn1 [Compound 62] | 4.23 | 5.15 | 4.51 | 4.59 | 4.86 | 4.70 | 5.22
6 | CCc1cc(C2=NCc3c(Cl)cccc3-n3cccc32)on1 [Compound 63] | <4.19 | <4.19 | <4.19 | <4.19 | 5.58 | <4.19 | 5.72
7 | CCc1nc(C2=NCc3c(Cl)cccc3-n3cccc32)cs1 [Compound 64] | <4.19 | 4.70 | <4.19 | 5.42 | 5.94 | <4.19 | 5.46
8 | CCc1nc(C2=NCc3c(Cl)cc(Cl)cc3-n3cccc32)cs1 [Compound 65] | <4.19 | 5.06 | 4.56 | 4.72 | 5.48 | <4.19 | 5.19
9 | CCc1cnc(C2=NCc3c(Cl)cccc3-n3cccc32)s1 [Compound 66] | <4.19 | <4.19 | <4.19 | 4.98 | 4.19 | <4.19 | 6.18
10 | CCc1cnc(C2=NCc3c(Cl)cc(Cl)cc3-n3cccc32)s1 [Compound 67] | <4.19 | <4.19 | <4.19 | 4.50 | <4.19 | <4.19 | 4.71
11 | CCc1csc(C2=NCc3c(Cl)cccc3-n3cccc32)n1 [Compound 68] | <4.19 | 4.38 | <4.19 | 4.91 | 4.80 | <4.19 | 5.58
12 | CCc1csc(C2=NCc3c(Cl)cc(Cl)cc3-n3cccc32)n1 [Compound 69] | <4.19 | <4.19 | <4.19 | 4.71 | <4.19 | <4.19 | 5.09
13 | CC(C)n1ccc(C2=NCc3cccc(Cl)c3-n3cccc32)cc1=O [Compound 71] | <4.19 | 5.00 | 5.42 | 5.83 | 5.78 | <4.19 | 5.55
14 | CCc1ccc(C2=NCc3c(Cl)cccc3-n3cccc32)nc1 [Compound 72] | <4.49 | <4.49 | <4.49 | 5.61 | <4.49 | <4.49 | 6.05
15 | CCc1ccc(C2=NCc3c(Cl)cc(Cl)cc3-n3cccc32)nc1 [Compound 73] | <4.49 | <4.49 | <4.49 | 5.10 | <4.49 | <4.49 | 6.09
16 | CCc1ccc(C2=NCc3c(ccc(Cl)c3Cl)-n3cccc32)cn1 [Compound 75] | <4.19 | <4.19 | <4.19 | 6.45 | <4.19 | <4.19 | <4.19
17 | Fc1cc(Cl)c2c(c1)-n1cccc1C(c1ccc(Cl)nc1)=NC2 [Compound 78] | 5.07 | <4.19 | <4.19 | 5.41 | 4.47 | 5.42 | 6.18
18 | Fc1cccc2c1CN=C(c1cnc(Cl)c(Cl)c1)c1cccn1-2 [Compound 80] | <4.19 | <4.19 | 5.42 | 5.09 | 5.23 | 5.59 | 5.79
19 | Fc1cc(F)c2c(c1)-n1cccc1C(c1cnc(Cl)c(Cl)c1)=NC2 [Compound 81] | 4.19 | <4.19 | 5.65 | <4.19 | <4.19 | 5.58 | <4.19
20 | Fc1cccc2c1CN=C(c1ccc(C(F)(F)F)nc1)c1cccn1-2 [Compound 90] | <4.19 | <4.19 | <4.19 | 5.42 | 5.33 | <4.19 | 6.19
21 | CC(=O)c1ccc(C2=NCc3c(F)cccc3-n3cccc32)cn1 [Compound 93] | <4.19 | <4.19 | <4.19 | 5.26 | 5.63 | 5.02 | 6.16
22 | Cc1cc(C2=NCc3ccccc3-n3cccc32)ccn1 [Compound 95] | <4.49 | <4.49 | <4.49 | <4.49 | 4.58 | <4.49 | 5.17
